According to patent US10689377B2 (Mirati Therapeutics, Inc., priority 2017, dated 2020):

Molecular target: KRas G12C (Homo sapiens, UniProt P01116, G12C)
Assay: Cellular inhibition of KRas G12C measured by Phospho-ERK in NCI-H358 cells
Type: cell-based
Details: pERK(Thr202/Tyr204) normalized with GAPDH, NCI-H358 cells, 3 hours; read-out: IC50
Method in brief: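 Ratio of phospho-ERK(Thr202/Tyr204) to GAPDH, read by near-infrared secondary antibodies on fixed, permeabilised NCI-H358 cells, expressed relative to DMSO control. Compound exposure was 3 h at 0.5% DMSO. IC50 values come from 4-parameter curve fits.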

Chain of KRas G12C (P01116 1-188 isoform P01116-2 G12C): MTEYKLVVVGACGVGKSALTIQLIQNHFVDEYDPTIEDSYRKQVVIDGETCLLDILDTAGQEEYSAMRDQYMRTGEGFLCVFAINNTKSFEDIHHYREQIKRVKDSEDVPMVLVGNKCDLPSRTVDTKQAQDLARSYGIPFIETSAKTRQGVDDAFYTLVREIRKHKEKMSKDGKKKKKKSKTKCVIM

Structure (SMILES)	IC50 [µM]
C=CC(=O)N1CCN(c2nc(OCCCN3C[C@H]4C[C@@H]3CO4)nc3c2CCN(c2ccccc2C(F)(F)F)C3)CC1CC#N (stereo partly drawn) [Example 280, 2-(4-(2-(3-((1R,4R)-2-oxa-5-azabicyclo[2.2.1]heptan-5-yl)propoxy)-7-(2-(trifluoromethyl)phenyl)-5,6,7,8-tetrahydropyrido [3,4-d]pyrimidin-4-yl)-1-acryloylpiperazin-2-yl)acetonitrile]	0.0001 to 1
C=CC(=O)N1CCN(c2nc(OC[C@@H]3CCN(C)C3)nc3c2CCN(c2ccccc2C(F)(F)F)C3)CC1CC#N (stereo partly drawn) [Example 281, 2-(1-acryloyl-4-(2-(((R)-1-methylpyrrolidin-3-yl)methoxy)-7-(2-(trifluoromethyl)phenyl)-5,6,7,8-tetrahydropyrido[3,4-d]pyrimidin-4-yl)piperazin-2-yl)acetonitrile]	0.0001 to 1
CC(C)=CC(=O)N1CCN(c2nc(OC[C@@H]3CCCN3C)nc3c2CCN(c2cccc4ccccc24)C3)CC1CC#N (stereo partly drawn) [Example 282, 2-(1-(3-methylbut-2-enoyl)-4-(2-(((S)-1-methylpyrrolidin-2-yl)methoxy)-7-(naphthalen-1-yl)-5,6,7,8-tetrahydropyrido[3,4-d]pyrimidin-4-yl)piperazin-2-yl)acetonitrile]	> 1
C=CC(=O)N1CCN(c2nc(OC[C@H]3CCCN3C)nc3c2CCN(c2ccccc2C(F)(F)F)C3)CC1CC#N (stereo partly drawn) [Example 283, 2-(1-acryloyl-4-(2-(((R)-1-methylpyrrolidin-2-yl)methoxy)-7-(2-(trifluoromethyl)phenyl)-5,6,7,8-tetrahydropyrido[3,4-d]pyrimidin-4-yl)piperazin-2-yl)acetonitrile]	0.0001 to 1
C=CC(=O)N1CCN(c2nc(OCCN(CC)CC)nc3c2CCN(c2ccccc2C(F)(F)F)C3)CC1CC#N (stereo not shown) [Example 284, 2-(1-acryloyl-4-(2-(2-(diethylamino)ethoxy)-7-(2-(trifluoromethyl)phenyl)-5,6,7,8-tetrahydropyrido[3,4-d]pyrimidin-4-yl)piperazin-2-yl)acetonitrile]	0.0001 to 1
C=CC(=O)N1CCN(c2nc(OC[C@@H]3CCCN3C(C)C)nc3c2CCN(c2cccc4ccccc24)C3)CC1CC#N (stereo partly drawn) [Example 285, 2-[4-[2-[[(2S)-1-isopropylpyrrolidin-2-yl]methoxy]-7-(1-naphthyl)-6,8-dihydro-5H-pyrido[3,4-d]pyrimidin-4-yl]-1-prop-2-enoyl-piperazin-2-yl]acetonitrile]	0.0001 to 1
C=CC(=O)N1CCN(c2nc(OC[C@@H]3CCCN3C)nc3c2CCN(c2cccc4ccc(Cl)cc24)C3)CC1CC#N (stereo partly drawn) [Example 286, 2-(1-acryloyl-4-(7-(7-chloronaphthalen-1-yl)-2-(((S)-1-methylpyrrolidin-2-yl)methoxy)-5,6,7,8-tetrahydropyrido[3,4-d]pyrimidin-4-yl)piperazin-2-yl)acetonitrile]	0.0001 to 1
C=CC(=O)N1CCN(c2nc(OC[C@@H]3CCCN3C)nc3c2CCN(c2cccc4c(F)cccc24)C3)CC1CC#N (stereo partly drawn) [Example 287, 2-[4-[7-(5-fluoro-1-naphthyl)-2-[[(2S)-1-methylpyrrolidin-2-yl]methoxy]-6,8-dihydro-5H-pyrido[3,4-d]pyrimidin-4-yl]-1-prop-2-enoyl-piperazin-2-yl]acetonitrile]	0.0001 to 1
C=CC(=O)N1CCN(c2nc(OC[C@@H]3CCCN3C)nc3c2CCN(c2cccc4ccc(OC)cc24)C3)CC1CC#N (stereo partly drawn) [Example 288, 2-[4-[7-(7-methoxy-1-naphthyl)-2-[[(2S)-1-methylpyrrolidin-2-yl]methoxy]-6,8-dihydro-5H-pyrido[3,4-d]pyrimidin-4-yl]-1-prop-2-enoyl-piperazin-2-yl]acetonitrile]	> 1
C=CC(=O)N1CCN(c2nc(OC[C@@H]3CCCN3C)nc3c2CCN(c2nccc4ccccc24)C3)CC1CC#N (stereo partly drawn) [Example 289, 2-[4-[7-(1-isoquinolyl)-2-[[(2S)-1-methylpyrrolidin-2-yl]methoxy]-6,8-dihydro-5H-pyrido[3,4-d]pyrimidin-4-yl]-1-prop-2-enoyl-piperazin-2-yl]acetonitrile]	> 1
